In PubChem BioAssay (NCI):
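Test compounds were applied to cells in 96-well plates for 48 hours at 5 doses. GI50 = concentration required for 50% inhibition of growth. Definition used: TGI = concentration required for complete inhibition of growth.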

What was measured:
Assay in all cases: inhibition of tumour cell growth, NCI panel, 48 h
[1] = system: PC-3 prostate
[2] = system: CAKI-1 renal
[3] = system: U251 CNS
[4] = system: SW-620 colon
[5] = system: UO-31 renal
[6] = system: SF-268 CNS
[7] = system: OVCAR-8 ovarian
[8] = system: RPMI-8226 leukemia
[9] = system: 786-0 renal
[10] = system: A498 renal
[11] = system: TK-10 renal
[12] = system: HS 578T breast
[13] = system: SR leukemia
[14] = system: OVCAR-3 ovarian
[15] = system: K-562 leukemia
[16] = system: NCI-H23 lung
[17] = system: CCRF-CEM leukemia
[18] = system: MALME-3M melanoma
[19] = system: ACHN renal
[20] = system: UACC-257 melanoma
[21] = system: HCT-15 colon
[22] = system: HT29 colon
[23] = system: NCI-H522 lung
[24] = system: MCF7 breast
[25] = system: T-47D breast
[26] = system: SNB-19 CNS
[27] = system: SF-539 CNS
[28] = system: NCI/ADR-RES ovarian
[29] = system: SK-OV-3 ovarian
[30] = system: SK-MEL-28 melanoma
[31] = system: SK-MEL-2 melanoma
[32] = system: KM12 colon
[33] = system: UACC-62 melanoma
[34] = system: M14 melanoma
[35] = system: BT-549 breast
[36] = system: EKVX NSCLC
[37] = system: HOP-62 NSCLC
[38] = system: RXF 393 renal
[39] = system: COLO 205 colon
[40] = system: NCI-H460 lung
[41] = system: DU-145 prostate
[42] = system: SNB-75 CNS
[43] = system: SN12C renal
[44] = system: HCT-116 colon
[45] = system: MDA-MB-231 breast
[46] = system: MDA-MB-435
[47] = system: HCC-2998 colon
[48] = system: MOLT-4 leukemia
[49] = system: HOP-92 NSCLC
[50] = system: SK-MEL-5 melanoma
[51] = system: A549 NSCLC
[52] = system: OVCAR-5 ovarian
[53] = system: LOX IMVI melanoma
[54] = system: NCI-H226 lung
[55] = system: OVCAR-4 ovarian
[56] = system: SF-295 CNS
[57] = system: IGROV1 ovarian

COc1ccc2cc(C(=O)/C=C/c3cccc(OC)c3OC)ccc2c1
GI50 [1]: 17.4 µM | TGI [1]: 46.1 µM | GI50 [2]: 11.6 µM | TGI [2]: 31.9 µM | GI50 [3]: 7.9 µM | TGI [3]: 22 µM | GI50 [4]: 9.53 µM | TGI [4]: 29.1 µM | GI50 [5]: 17.5 µM | TGI [5]: 31.3 µM | GI50 [6]: 24.2 µM | TGI [6]: 50.8 µM | GI50 [7]: 8.88 µM | TGI [7]: 33.6 µM | GI50 [8]: 6.86 µM | TGI [8]: > 100 µM | GI50 [9]: 4.26 µM | TGI [9]: 16.6 µM | GI50 [10]: 13.3 µM | TGI [10]: 26.6 µM | GI50 [11]: 25.3 µM | TGI [11]: 65.1 µM | GI50 [12]: 25.5 µM | TGI [12]: 73.9 µM | GI50 [13]: 2.88 µM | TGI [13]: > 100 µM | GI50 [14]: 19 µM | TGI [14]: 35.5 µM | GI50 [15]: 2.84 µM | TGI [15]: 12.1 µM | GI50 [16]: 11.2 µM | TGI [16]: 25.3 µM | GI50 [17]: 5.46 µM | TGI [17]: > 100 µM | GI50 [18]: 10.4 µM | TGI [18]: 29.4 µM | GI50 [19]: 8.38 µM | TGI [19]: 22.2 µM | GI50 [20]: 15 µM | TGI [20]: 29.8 µM | GI50 [21]: 3.53 µM | TGI [21]: 15.4 µM | GI50 [22]: 4.07 µM | TGI [22]: 17.6 µM | GI50 [23]: 10.2 µM | TGI [23]: 29.6 µM | GI50 [24]: 0.455 µM | TGI [24]: 22.9 µM | GI50 [25]: 3.9 µM | TGI [25]: 35.5 µM | GI50 [26]: 15.6 µM | TGI [26]: 33.5 µM | GI50 [27]: 11.1 µM | TGI [27]: 26.1 µM | GI50 [28]: 6.57 µM | TGI [28]: 34.3 µM | GI50 [29]: 23.7 µM | TGI [29]: 45.9 µM | GI50 [30]: 19.4 µM | TGI [30]: 44.5 µM | GI50 [31]: 21.3 µM | TGI [31]: 40.3 µM | GI50 [32]: 13 µM | TGI [32]: 33.1 µM | GI50 [33]: 2.77 µM | TGI [33]: 11 µM | GI50 [34]: 4.58 µM | TGI [34]: 16.6 µM | GI50 [35]: 20.6 µM | TGI [35]: 63.1 µM | GI50 [36]: 17.9 µM | TGI [36]: 36.7 µM | GI50 [37]: 17.4 µM | TGI [37]: 34.5 µM | GI50 [38]: 3.76 µM | TGI [38]: 12.9 µM | GI50 [39]: 20.4 µM | TGI [39]: 78.5 µM | GI50 [40]: 18.3 µM | TGI [40]: 37.5 µM | GI50 [41]: 15.3 µM | TGI [41]: 34.2 µM | GI50 [42]: 18.5 µM | TGI [42]: 35.6 µM | GI50 [43]: 3.83 µM | TGI [43]: 14 µM | GI50 [44]: 3.62 µM | TGI [44]: 13.3 µM | GI50 [45]: 14.8 µM | TGI [45]: 38.5 µM | GI50 [46]: 5.16 µM | TGI [46]: 29.7 µM | GI50 [47]: 14.2 µM | TGI [47]: 27.2 µM | GI50 [48]: 3.12 µM | TGI [48]: 15.6 µM | GI50 [49]: 36.2 µM | TGI [49]: > 100 µM | GI50 [50]: 14.3 µM | TGI [50]: 27.4 µM | GI50 [51]: 7.11 µM | TGI [51]: 24.8 µM | GI50 [52]: 20.2 µM | TGI [52]: 40.7 µM

C[C@]12CC[C@@H]3c4ccc(O)cc4CC[C@H]3[C@@H]1CC[C@@H]2NS(=O)(=O)c1ccc(C(F)(F)F)cc1
GI50 [1]: 1.99 µM | TGI [1]: 5.24 µM | GI50 [2]: 2.78 µM | TGI [2]: 8.06 µM | GI50 [3]: 1.75 µM | TGI [3]: 3.3 µM | GI50 [4]: 3.23 µM | TGI [4]: 10.8 µM | GI50 [5]: 1.6 µM | TGI [5]: 3.43 µM | GI50 [6]: 3.1 µM | TGI [6]: 11.8 µM | GI50 [7]: 2.54 µM | TGI [7]: 6.95 µM | GI50 [8]: 2.51 µM | TGI [8]: 6.79 µM | GI50 [9]: 1.95 µM | TGI [9]: 3.77 µM | GI50 [10]: 1.25 µM | TGI [10]: 2.74 µM | GI50 [11]: 3.28 µM | TGI [11]: 8.53 µM | GI50 [12]: 2.23 µM | TGI [12]: 6.01 µM | GI50 [53]: 1.68 µM | TGI [53]: 3.06 µM | GI50 [13]: 2.43 µM | TGI [13]: 7.5 µM | GI50 [15]: 3.16 µM | TGI [15]: 8.69 µM | GI50 [16]: 2.08 µM | TGI [16]: 5.43 µM | GI50 [17]: 2.77 µM | TGI [17]: 9.8 µM | GI50 [18]: 2.03 µM | TGI [18]: 4.37 µM | GI50 [19]: 1.63 µM | TGI [19]: 3.06 µM | GI50 [20]: 2.59 µM | TGI [20]: 7.57 µM | GI50 [21]: 1.68 µM | TGI [21]: 3.62 µM | GI50 [22]: 2.01 µM | TGI [22]: 3.94 µM | GI50 [23]: 1.69 µM | TGI [23]: 3.85 µM | GI50 [24]: 2.26 µM | TGI [24]: 5 µM | GI50 [25]: 2.68 µM | TGI [25]: 6.32 µM | GI50 [26]: 3.28 µM | TGI [26]: 11.6 µM | GI50 [27]: 1.6 µM | TGI [27]: 2.97 µM | GI50 [28]: 2.17 µM | TGI [28]: 5.7 µM | GI50 [29]: 2.53 µM | TGI [29]: 6.21 µM | GI50 [30]: 1.68 µM | TGI [30]: 3.08 µM | GI50 [31]: 2.13 µM | TGI [31]: 4 µM | GI50 [32]: 1.87 µM | TGI [32]: 3.57 µM | GI50 [54]: 1.68 µM | TGI [54]: 3.2 µM | GI50 [33]: 1.83 µM | TGI [33]: 3.55 µM | GI50 [34]: 1.9 µM | TGI [34]: 3.6 µM | GI50 [55]: 1.42 µM | TGI [55]: 2.78 µM | GI50 [35]: 1.7 µM | TGI [35]: 3.2 µM | GI50 [37]: 2 µM | TGI [37]: 3.7 µM | GI50 [38]: 1.63 µM | TGI [38]: 3.13 µM | GI50 [39]: 1.83 µM | TGI [39]: 3.38 µM | GI50 [56]: 1.91 µM | TGI [56]: 3.9 µM | GI50 [40]: 1.98 µM | TGI [40]: 4.11 µM | GI50 [41]: 2.75 µM | TGI [41]: 7.11 µM | GI50 [42]: 1.67 µM | TGI [42]: 3.6 µM | GI50 [43]: 1.75 µM | TGI [43]: 3.36 µM | GI50 [44]: 1.74 µM | TGI [44]: 3.19 µM | GI50 [45]: 1.74 µM | TGI [45]: 3.31 µM | GI50 [46]: 2.12 µM | TGI [46]: 5 µM | GI50 [47]: 2.11 µM | TGI [47]: 4.37 µM | GI50 [48]: 2.61 µM | TGI [48]: 12.7 µM | GI50 [57]: 2.45 µM | TGI [57]: 6.23 µM | GI50 [49]: 1.51 µM | TGI [49]: 3.28 µM | GI50 [50]: 1.7 µM | TGI [50]: 3.07 µM | GI50 [51]: 2.05 µM | TGI [51]: 4.98 µM | GI50 [52]: 1.7 µM | TGI [52]: 3.26 µM
